Assay [1] concerns beet armyworm (BAW; Spodoptera exigua). The assay can be described thus: Insecticidal test for beet armyworm, 128-well diet tray assay. It counts as in vivo. To be noted: 144 h, 50 μg/cm2 on artificial diet, second instar larvae, six days at 25° C. The protocol: (§1) Bioassays on beet armyworm (BAW; Spodoptera exigua: Lepidoptera) were conducted using a 128-well diet tray assay. Three to five second instar BAW larvae were placed in each well (3 mL) of the diet tray that had been previously filled with 1 mL of artificial diet to which 50 μg/cm^2 of the test compound (dissolved in 50 μL of 90:10 acetone-water mixture) had been applied (to each of eight wells) and then allowed to dry. Trays were covered with a clear self-adhesive cover, and held at 25° C., 14:10 light-dark for six days. Percent mortality was recorded for the larvae in each well; activity in the eight wells was then averaged.

For assay [2], the system named is corn earworm (CEW; Helicoverpa zea). The assay can be described thus: Insecticidal test for corn earworm, 128-well diet tray assay. It counts as in vivo. To be noted: 144 h, 50 μg/cm2 on artificial diet, second instar larvae, six days at 25° C. How it is done: as §1, with “corn earworm (CEW; Helicoverpa zea:” for “beet armyworm (BAW; Spodoptera exigua:”, “CEW” for “BAW”

Molecules are shown by their SMILES.

As usually defined, the mortality is the percentage killed. For `Cc1cc(C)c(NC(=O)N/N=C/c2ccc(-c3ncn(-c4ccc(OC(F)(F)F)cc4)n3)cc2)c(C)c1` [Compound 118], the mortality at 50 µg/cm2 in assay [1] and in assay [2] was 50 to 100% in each case.

Regarding `CCc1cc(OC)ccc1NC(=S)N/N=C/c1ccc(-c2ncn(-c3ccc(OC(F)(F)F)cc3)n2)cc1` [Compound 111], the mortality at 50 µg/cm2 in assay [1] and in assay [2] was 50 to 100% each time.

Consider `COc1cccc(NC(=S)N/N=C/c2ccc(-c3ncn(-c4ccc(OC(F)(F)F)cc4)n3)cc2)c1` [Compound 94], for which the mortality at 50 µg/cm2 in assay [1] and in assay [2] was 50 to 100% in each case.

As to `CC(NC(=S)N/N=C/c1ccc(-c2ncn(-c3ccc(OC(F)(F)F)cc3)n2)cc1)c1ccccc1` (stereo not shown) [Compound 152], the mortality at 50 µg/cm2 in assay [1] and in assay [2] was 50 to 100% each time.

On to `CCCc1ccccc1NC(=S)N/N=C/c1ccc(-c2ncn(-c3ccc(OC(F)(F)F)cc3)n2)cc1` [Compound 82], for which the mortality at 50 µg/cm2 in assay [1] and in assay [2] was 50 to 100% in each case.

As for `CC(C)c1cccc(C(C)C)c1NC(=S)N/N=C/c1ccc(-c2ncn(-c3ccc(OC(F)(F)F)cc3)n2)cc1` [Compound 107], the mortality at 50 µg/cm2 in assay [1] and in assay [2] was 50 to 100% each time.

Regarding `Cc1ccnc(C)c1NC(=S)N/N=C/c1ccc(-c2ncn(-c3ccc(OC(F)(F)F)cc3)n2)cc1` [Compound 102], the mortality at 50 µg/cm2 in assay [1] and in assay [2] was 50 to 100% each time.

Take `CC(NC(=S)N/N=C/c1ccc(-c2ncn(-c3ccc(OC(F)(F)F)cc3)n2)cc1)c1ccsc1` (stereo not shown) [Compound 155]: the mortality at 50 µg/cm2 in assay [1] and in assay [2] was 50 to 100% in each case.

Take `COc1cc(C)c(NC(=S)N/N=C/c2ccc(-c3ncn(-c4ccc(OC(F)(F)F)cc4)n3)cc2)c(C)c1` [Compound 116]: the mortality at 50 µg/cm2 in assay [1] and in assay [2] was 50 to 100% each time.

Regarding `Fc1cc(F)c(NC(=S)N/N=C/c2ccc(-c3ncn(-c4ccc(OC(F)(F)F)cc4)n3)cc2)c(F)c1` [Compound 98], the mortality at 50 µg/cm2 in assay [1] and in assay [2] was 50 to 100% throughout.

For `COc1ccc(C(C)NC(=S)N/N=C/c2ccc(-c3ncn(-c4ccc(OC(F)(F)F)cc4)n3)cc2)cc1` (stereo not shown) [Compound 143], the mortality at 50 µg/cm2 in assay [1] and in assay [2] was 50 to 100% throughout.

For the compound `Fc1cccc(Br)c1NC(=S)N/N=C/c1ccc(-c2ncn(-c3ccc(OC(F)(F)F)cc3)n2)cc1` [Compound 105], the mortality at 50 µg/cm2 in assay [1] and in assay [2] was 50 to 100% each time.

Take `FC(F)(F)Oc1ccc(-n2cnc(-c3ccc(/C=N/NC(=S)Nc4c(Br)cccc4Br)cc3)n2)cc1` [Compound 48]: the mortality at 50 µg/cm2 in assay [1] and in assay [2] was 50 to 100% throughout.

As to `Cc1cc(F)cc(C)c1NC(=S)N/N=C/c1ccc(-c2ncn(-c3ccc(OC(F)(F)F)cc3)n2)cc1` [Compound 112], the mortality at 50 µg/cm2 in assay [1] and in assay [2] was 50 to 100% throughout.

Take `CC(NC(=S)N/N=C/c1ccc(-c2ncn(-c3ccc(OC(F)(F)F)cc3)n2)cc1)c1ccc(Br)cc1` (stereo not shown) [Compound 146]: the mortality at 50 µg/cm2 in assay [1] and in assay [2] was 50 to 100% each time.

For the compound `COc1ccccc1C(C)NC(=S)N/N=C/c1ccc(-c2ncn(-c3ccc(OC(F)(F)F)cc3)n2)cc1` (stereo not shown) [Compound 148], the mortality at 50 µg/cm2 in assay [1] and in assay [2] was 50 to 100% throughout.

In the case of `COc1ccc(C(C)NC(=S)N/N=C/c2ccc(-c3ncn(-c4ccc(OC(F)(F)F)cc4)n3)cc2)cc1C` (stereo not shown) [Compound 149], the mortality at 50 µg/cm2 in assay [1] and in assay [2] was 50 to 100% each time.

As to `Cc1cc(C)c(NC(=S)N/N=C/c2ccc(-c3ncn(-c4ccc(OC(F)(F)F)cc4)n3)cc2)c(Cl)c1` [Compound 104], the mortality at 50 µg/cm2 in assay [1] and in assay [2] was 50 to 100% in each case.

For the compound `CCCCc1ccc(-n2cnc(-c3ccc(/C=N/NC(=S)Nc4c(C)cc(OC)cc4C)cc3)n2)cc1` [Compound 124], the mortality at 50 µg/cm2 in assay [1] and in assay [2] was 50 to 100% in each case.

Take `CSc1cc(C)c(NC(=S)N/N=C/c2ccc(-c3ncn(-c4ccc(OC(F)(F)F)cc4)n3)cc2)c(C)c1` [Compound 100]: the mortality at 50 µg/cm2 in assay [1] and in assay [2] was 50 to 100% throughout.

Regarding `Cc1cccc(C)c1NC(=S)N/N=C/c1ccc(-c2ccn(-c3ccc(OC(F)(F)F)cc3)c2)cc1` [Compound 134], the mortality at 50 µg/cm2 in assay [1] and in assay [2] was 50 to 100% in each case.

For `COc1cc(Cl)c(NC(=S)N/N=C/c2ccc(-c3ncn(-c4ccc(OC(F)(F)F)cc4)n3)cc2)c(Cl)c1` [Compound 115], the mortality at 50 µg/cm2 in assay [1] and in assay [2] was 50 to 100% throughout.

For `CC(NC(=S)N/N=C/c1ccc(-c2ncn(-c3ccc(OC(F)(F)F)cc3)n2)cc1)c1ccc2c(c1)OCO2` (stereo not shown) [Compound 159], the mortality at 50 µg/cm2 in assay [1] and in assay [2] was 50 to 100% in each case.

Take `COc1ccc([C@@H](C)NC(=S)N/N=C/c2ccc(-c3ncn(-c4ccc(OC(F)(F)F)cc4)n3)cc2)cc1` [Compound 142]: the mortality at 50 µg/cm2 in assay [1] and in assay [2] was 50 to 100% throughout.

For the compound `COc1cc(C)ccc1NC(=S)N/N=C/c1ccc(-c2ncn(-c3ccc(OC(F)(F)F)cc3)n2)cc1` [Compound 117], the mortality at 50 µg/cm2 in assay [1] and in assay [2] was 50 to 100% each time.

For the compound `Cc1cc(C)c(NC(=S)N/N=C/c2ccc(-c3ncn(-c4ccc(OC(F)(F)F)cc4)n3)cc2)c(C)n1` [Compound 106], the mortality at 50 µg/cm2 in assay [1] and in assay [2] was 50 to 100% in each case.

In the case of `COC(=O)C1CC(c2ccc(/C=N/NC(=S)Nc3c(C)cccc3C)cc2)=NN1c1ccc(OC(F)(F)F)cc1` (stereo not shown) [Compound 130], the mortality at 50 µg/cm2 in assay [1] and in assay [2] was 50 to 100% each time.

For the compound `Cc1ccc(NC(=S)N/N=C/c2ccc(-c3ncn(-c4ccc(OC(F)(F)F)cc4)n3)cc2)c(C)c1` [Compound 95], the mortality at 50 µg/cm2 in assay [1] and in assay [2] was 50 to 100% in each case.

As to `CCCN(/N=C/c1ccc(-c2ncn(-c3ccc(OC(F)(F)F)cc3)n2)cc1)C(=S)Nc1ccc(OC)cc1C` [Compound 87], the mortality at 50 µg/cm2 in assay [1] and in assay [2] was under 50% each time.

In the case of `FC(F)(F)Oc1ccc(N2CCC(c3ccc(/C=N/NC(=S)Nc4c(Cl)cccc4Cl)cc3)=N2)cc1` [Compound 141], the mortality at 50 µg/cm2 in assay [1] and in assay [2] was 50 to 100% each time.

Consider `COc1ccc(C)cc1NC(=S)N/N=C/c1ccc(-c2ncn(-c3ccc(OC(F)(F)F)cc3)n2)cc1` [Compound 89], for which the mortality at 50 µg/cm2 in assay [1] and in assay [2] was 50 to 100% in each case.

`Cc1cc(C)c(NC(=S)N/N=C/c2ccc(-c3ncn(-c4ccc(OC(F)(F)F)cc4)n3)cc2)c(C)c1` [Compound 93]: the mortality at 50 µg/cm2 in assay [1] and in assay [2] was 50 to 100% throughout.

For `Cc1ccsc1CNC(=S)N/N=C/c1ccc(-c2ncn(-c3ccc(OC(F)(F)F)cc3)n2)cc1` [Compound 156], the mortality at 50 µg/cm2 in assay [1] and in assay [2] was 50 to 100% in each case.

`FC(F)(F)Oc1ccc(-n2ccc(-c3ccc(/C=N/NC(=S)Nc4c(Cl)cccc4Cl)cc3)c2)cc1` [Compound 135]: the mortality at 50 µg/cm2 in assay [1] and in assay [2] was 50 to 100% in each case.

For `Cc1ccc(Cl)c(C)c1NC(=S)N/N=C/c1ccc(-c2ncn(-c3ccc(OC(F)(F)F)cc3)n2)cc1` [Compound 101], the mortality at 50 µg/cm2 in assay [1] and in assay [2] was 50 to 100% in each case.

Take `C/C(=N\NC(=S)Nc1c(C)cccc1C)c1ccc(-c2cnn(-c3ccc(OC(F)(F)F)cc3)c2)cc1` [Compound 139]: the mortality at 50 µg/cm2 in assay [1] and in assay [2] was 50 to 100% throughout.

As for `COCc1ccc(C(C)NC(=S)N/N=C/c2ccc(-c3ncn(-c4ccc(OC(F)(F)F)cc4)n3)cc2)cc1` (stereo not shown) [Compound 157], the mortality at 50 µg/cm2 in assay [1] and in assay [2] was 50 to 100% each time.

Take `FC(F)(F)Oc1ccc(-n2cnc(-c3ccc(/C=N/NC(=S)Nc4ccccc4I)cc3)n2)cc1` [Compound 60]: the mortality at 50 µg/cm2 in assay [1] and in assay [2] was 50 to 100% throughout.

`Cc1cccc(C)c1NC(=S)N/N=C/c1ccc(-c2cnn(-c3ccc(OC(F)(F)F)cc3)c2)cc1` [Compound 138]: the mortality at 50 µg/cm2 in assay [1] and in assay [2] was 50 to 100% each time.

Turning to `COc1cc(F)c(NC(=S)N/N=C/c2ccc(-c3ncn(-c4ccc(OC(F)(F)F)cc4)n3)cc2)c(F)c1` [Compound 108], the mortality at 50 µg/cm2 in assay [1] and in assay [2] was 50 to 100% throughout.

Consider `CCN(/N=C/c1ccc(-c2ncn(-c3ccc(OC(F)(F)F)cc3)n2)cc1)C(=S)Nc1ccc(OC)cc1C` [Compound 86], for which the mortality at 50 µg/cm2 in assay [1] and in assay [2] was 50 to 100% throughout.

In the case of `Cc1cccc(C)c1NC(=S)N/N=C/c1ccc(C2=NN(c3ccc(OC(F)(F)F)cc3)CC2)cc1` [Compound 140], the mortality at 50 µg/cm2 in assay [1] and in assay [2] was 50 to 100% in each case.

Consider `COc1ccc(NC(=S)N(C)/N=C/c2ccc(-c3ncn(-c4ccc(OC(F)(F)F)cc4)n3)cc2)c(C)c1` [Compound 85], for which the mortality at 50 µg/cm2 in assay [1] and in assay [2] was 50 to 100% in each case.

Take `CC(NC(=S)N/N=C/c1ccc(-c2ncn(-c3ccc(OC(F)(F)F)cc3)n2)cc1)c1cccnc1` (stereo not shown) [Compound 158]: the mortality at 50 µg/cm2 in assay [1] and in assay [2] was 50 to 100% each time.

The values above are taken from patent US8680269B2, “Pesticidal compositions” (Dow AgroSciences, LLC., priority 2009, dated 2014).
